This note sets out measurements from US7122545B2, “Imidazo-benzothiazoles” (Hoffmann-La Roche Inc., priority 2003, dated 2006).

For series [1], the target named is T1, human adenosine A1 receptor (Homo sapiens, UniProt P30542).
T1 construct: expressed in transfected cells; host or cells: CHO cells, semliki forest virus expression system; membrane preparation
T1 sequence (P30542 1-326): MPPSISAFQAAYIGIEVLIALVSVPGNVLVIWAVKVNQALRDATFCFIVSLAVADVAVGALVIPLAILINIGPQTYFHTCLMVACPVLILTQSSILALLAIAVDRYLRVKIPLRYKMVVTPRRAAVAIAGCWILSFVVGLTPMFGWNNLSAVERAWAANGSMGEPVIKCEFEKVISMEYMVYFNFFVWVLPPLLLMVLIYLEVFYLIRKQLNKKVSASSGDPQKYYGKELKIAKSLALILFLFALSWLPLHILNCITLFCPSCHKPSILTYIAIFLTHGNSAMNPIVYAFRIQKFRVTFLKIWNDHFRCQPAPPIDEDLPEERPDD
Description: Human adenosine A1 receptor [3H]-DPCPX binding assay (SPA). To be noted: recombinant receptor in CHO cell membranes; [3H]-DPCPX 0.6 nM; Ki by Cheng-Prussoff; read-out: hA1 (pKi) (converted). Here is the method: Human Adenosine A1 receptor
(§1) The human adenosine A1 receptor was recombinantly expressed in Chinese hamster ovary (CHO) cells using the semliki forest virus expression system. Cells were harvested, washed twice by centrifugation, homogenized and again washed by centrifugation. The final washed membrane pellet was suspended in a Tris (50 mM) buffer containing 120 mM NaCl, 5 mM KCl, 2 mM CaCl2 and 10 mM MgCl2 (pH 7.4) (buffer A). The [^3H]-DPCPX (([propyl-^3H]8-cyclopentyl-1,3-dipropyxanthine); 0.6 nM) binding assay was carried out in 96-well plates in the presence of 2.5 μg of membrane protein, 0.5 mg of Ysi-poly-1-lysine SPA beads and 0.1 U adenosine deaminase in a final volume of 200 μl of buffer A. Non-specific binding was defined using xanthine amine congener (XAC; 2 μM). Compounds were tested at 10 concentrations from 10 μM–0.3 nM. All assays were conducted in duplicate and repeated at least two times. Assay plates were incubated for 1 hour at room temperature before centrifugation and then bound ligand determined using a Packard Topcount scintillation counter. IC50 values were calculated using a non-linear curve fitting program and Ki values calculated using the Cheng-Prussoff equation.

Series [2] has as its target T2, human adenosine A2A receptor (Homo sapiens, UniProt P29274).
T2 construct: expressed in transfected cells; host or cells: CHO cells, semliki forest virus expression system; membrane preparation
Description: Human adenosine A2A receptor [3H]-SCH-58261 binding assay (SPA). To be noted: recombinant receptor in CHO cell membranes; [3H]-SCH-58261 1 nM; Ki by Cheng-Prussoff; read-out: hA2 (pKi) (converted). Here is the method: Human Adenosine A2A Receptor
as §1, with “A2A” for “A1”, “[^3H]-SCH-58261 (Dionisotti et al., 1997, Br J Pharmacol 121, 353; 1” for “[^3H]-DPCPX (([propyl-^3H]8-cyclopentyl-1,3-dipropyxanthine); 0.6”, “μM-0.3” for “μM–0.3”, “duplic” for “duplicate”, “[…]” for “for 1”

T2 sequence (P29274 whole entry): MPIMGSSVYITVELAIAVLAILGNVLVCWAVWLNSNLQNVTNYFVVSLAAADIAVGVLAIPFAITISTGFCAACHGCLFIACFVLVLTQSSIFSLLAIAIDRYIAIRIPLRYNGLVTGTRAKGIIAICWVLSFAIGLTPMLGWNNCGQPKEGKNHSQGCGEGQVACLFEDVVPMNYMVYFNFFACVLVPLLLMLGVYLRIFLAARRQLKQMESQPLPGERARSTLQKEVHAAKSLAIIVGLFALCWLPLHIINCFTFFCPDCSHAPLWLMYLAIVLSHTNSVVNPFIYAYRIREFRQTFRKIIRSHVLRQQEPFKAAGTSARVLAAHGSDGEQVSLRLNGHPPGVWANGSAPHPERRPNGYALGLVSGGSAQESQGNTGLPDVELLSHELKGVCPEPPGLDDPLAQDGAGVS

Molecule `COc1ccc(N2CCOCC2)c2sc(-c3nc4ccccc4[nH]3)nc12` [Example 2, 2-(1H-Benzoimidazol-2-yl)-4-methoxy-7-morpholin-4-yl-benzothiazole] had a melting point of 284 to 286 °C. Also, in series [1], the Ki is 0.158 µM. The Ki in series [2] is 0.000501 µM.
The matching figures for `COc1ccc(N2CCOCC2)c2sc(-c3nc4c([nH]3)COCC4)nc12` [Example 23, 2-(4-Methoxy-7-morpholin-4-yl-benzothiazol-2-yl)-3,4,6,7-tetrahydro-pyrano[3,4-d]imidazole]: 203 to 204 °C, 0.398 µM and 0.00126 µM.
